Here are results for four compounds from patent publication EP1638538B1, “DOSAGE FORM” (priority 2003, dated 2005).

The structures appear in SMILES notation.

A short description of the series: Time for complete absorption of sunflower oil into compressed sporopollenin tablets with an absorption aiding liquid. It counts as physicochemical. How it is done:
Sporopollenin (0.5 g) tablets were prepared by compressing in a 16 mm die at a pressure of 10 tonnes for 2 min. […] The resulting powder was dried in a dessicator over P2O5 in oven at 50°C until constant weight.

[1] abbreviates: sunflower oil (1 ml) + liquid (1 ml), 0.5 g tablet, room temperature.

Take `CC#N` [acetonitrile]: under setting [1], the “Time for complete absorption” value was found to be 20 s.
Regarding `ClCCl` [dichloromethane], under setting [1], the “Time for complete absorption” value was 35 s.
For `CCO` [ethanol], the “Time for complete absorption” value stood at 20 s under setting [1] and 12 s (sunflower oil, repeated at 40 °C).
With `CCOC(C)=O` [ethyl acetate], the “Time for complete absorption” value under setting [1] is 50 s.
